This assay concerns L1210 leukemia ip in BDF1 mice, survival T/C. The experiment in a line: NCI In Vivo Anticancer Drug Screen. Data for tumor model L1210 Leukemia (intraperitoneal) in B6D2F1 (BDF1) mice. Conditions: endpoint: mean survival time, higher = longer survival. A digest of the protocol:
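In this screen, tumor-bearing mice given compound are compared to those given vehicle, and their survival values are reported as a treated-to-control quotient.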

Setting [1] is: dose: 100.0 mg/kg/injection, schedule: Q04DX003 (ip), vehicle: saline with Tween-80.
Setting [2] is: dose: 200.0 mg/kg/injection, schedule: Q04DX003 (ip), vehicle: saline with Tween-80.
Where [3] appears, read: dose: 400.0 mg/kg/injection, schedule: Q04DX003 (ip), vehicle: saline with Tween-80.
The mark [4] stands for this setting: dose: 100.0 mg/kg/injection, schedule: Q01DX001 (ip), vehicle: saline.
Where [5] appears, read: dose: 200.0 mg/kg/injection, schedule: Q01DX001 (ip), vehicle: saline.
Where [6] appears, read: dose: 400.0 mg/kg/injection, schedule: Q01DX001 (ip), vehicle: saline.
The mark [7] stands for this setting: dose: 100.0 mg/kg/injection, schedule: Q01DX009 (ip), vehicle: Klucel (hydroxypropylcellulose) (HPC).
The mark [8] stands for this setting: dose: 100.0 mg/kg/injection, schedule: Q04DX003 (ip), vehicle: Klucel (hydroxypropylcellulose) (HPC).
Where [9] appears, read: dose: 200.0 mg/kg/injection, schedule: Q01DX009 (ip), vehicle: Klucel (hydroxypropylcellulose) (HPC).
[10] abbreviates: dose: 200.0 mg/kg/injection, schedule: Q04DX003 (ip), vehicle: Klucel (hydroxypropylcellulose) (HPC).
Setting [11] is: dose: 400.0 mg/kg/injection, schedule: Q01DX009 (ip), vehicle: Klucel (hydroxypropylcellulose) (HPC).
[12] abbreviates: dose: 400.0 mg/kg/injection, schedule: Q04DX003 (ip), vehicle: Klucel (hydroxypropylcellulose) (HPC).
Setting [13] is: dose: 100.0 mg/kg/injection, schedule: Q04DX002 (ip), vehicle: saline with Tween-80.
Setting [14] is: dose: 200.0 mg/kg/injection, schedule: Q04DX002 (ip), vehicle: saline with Tween-80.
The mark [15] stands for this setting: dose: 400.0 mg/kg/injection, schedule: Q04DX002 (ip), vehicle: saline with Tween-80.
The mark [16] stands for this setting: dose: 50.0 mg/kg/injection, schedule: Q01DX001 (ip), vehicle: saline.
[17] abbreviates: dose: 100.0 mg/kg/injection, schedule: Q01DX001 (ip), vehicle: other.
[18] abbreviates: dose: 100.0 mg/kg/injection, schedule: Q01DX001 (ip), vehicle: saline with Tween-80.
[19] abbreviates: dose: 200.0 mg/kg/injection, schedule: Q01DX001 (ip), vehicle: saline with Tween-80.
Setting [20] is: dose: 400.0 mg/kg/injection, schedule: Q01DX001 (ip), vehicle: saline with Tween-80.
Setting [21] is: dose: 100.0 mg/kg/injection, schedule: Q04DX002 (ip), vehicle: Klucel (hydroxypropylcellulose) (HPC).

Inconclusive results and toxic doses are left out.

For the molecule `Cc1nc(Cl)cc(Cl)c1C`, the T/C (dose: 100.0 mg/kg/injection, schedule: Q04DX003 (ip), vehicle: other) was 106 % of control; the T/C (dose: 178.0 mg/kg/injection, schedule: Q04DX003 (ip), vehicle: other) was 103 % of control; the T/C (dose: 200.0 mg/kg/injection, schedule: Q04DX003 (ip), vehicle: other) is 104 % of control; the T/C (dose: 266.0 mg/kg/injection, schedule: Q04DX003 (ip), vehicle: other) is 103 % of control; the T/C (dose: 400.0 mg/kg/injection, schedule: Q04DX003 (ip), vehicle: other) was 89 % of control.
On to `Cc1ccc(S(=O)(=O)CO)cc1`, for which the T/C reads like this: (dose: 50.0 mg/kg/injection, schedule: Q01DX009 (ip), vehicle: saline with Tween-80) 108 % of control; (dose: 100.0 mg/kg/injection, schedule: Q01DX009 (ip), vehicle: saline with Tween-80) 89 % of control; (dose: 200.0 mg/kg/injection, schedule: Q01DX009 (ip), vehicle: saline with Tween-80) 97 % of control.
Regarding `O=C(O)C1C2CC3C(C2)C31.[Ag]` (stereo unspecified), the T/C was 91 % of control (dose: 20.0 mg/kg/injection, schedule: Q01DX009 (ip), vehicle: Klucel (hydroxypropylcellulose) (HPC)); 93 % of control (dose: 20.0 mg/kg/injection, schedule: Q04DX003 (ip), vehicle: Klucel (hydroxypropylcellulose) (HPC)); 89 % of control (dose: 40.0 mg/kg/injection, schedule: Q04DX003 (ip), vehicle: Klucel (hydroxypropylcellulose) (HPC)).
With `CNC(=O)Oc1cccc(NC(=O)C2CC2)c1`, the T/C under setting [1] was 94 % of control, the T/C under setting [2] was 94 % of control and the T/C under setting [3] was 96 % of control.
Take `CC(=O)C(C(=O)NCc1ccccc1)C(c1ccc2c(c1)OCO2)C(C(C)=O)C(=O)NCc1ccccc1` (stereo unspecified): the T/C is 98 % of control under setting [4], 96 % of control under setting [5] and 97 % of control under setting [6].
Take `CCOC(=O)C(NC(C)=O)C(=O)OCC`: the T/C reads like this: under setting [7], 103 % of control; under setting [8], 107 % of control; under setting [9], 105 % of control; under setting [10], 107 % of control; under setting [11], 107 % of control; under setting [12], 106 % of control.
With `CCCCCCCCCCCCCCCCCCNC(=O)N(C)C1CCCCC1`, the T/C runs as follows: under setting [7], 88 % of control; under setting [9], 89 % of control; under setting [11], 101 % of control.
In the case of `CCOC(=O)c1c[nH]c2cc([N+](=O)[O-])ccc2c1=O`, the T/C (dose: 25.0 mg/kg/injection, schedule: Q04DX003 (ip), vehicle: saline with Tween-80) is 91 % of control and the T/C (dose: 50.0 mg/kg/injection, schedule: Q04DX003 (ip), vehicle: saline with Tween-80) is 86 % of control.
Turning to `O=C1OCCN1S(=O)(=O)c1ccc(Cl)c(Cl)c1`, the T/C under setting [7] was 87 % of control; the T/C under setting [8] is 100 % of control; the T/C under setting [9] was 97 % of control; the T/C under setting [10] is 105 % of control; the T/C under setting [11] was 90 % of control; the T/C under setting [12] was 101 % of control.
Consider `CC1(O)C(c2ccccc2)=Nc2ccccc21` (stereo unspecified), for which the T/C by setting is: under setting [13], 95 % of control; under setting [14], 113 % of control; under setting [15], 92 % of control.
For `CC(=O)N(N=O)c1c(C)cccc1C`, the T/C reads like this: under setting [16], 102 % of control; under setting [4], 105 % of control.
Consider `Cc1cc([N+](=O)[O-])c2nnnn2c1`, for which the T/C was 108 % of control under setting [17] and 90 % of control (dose: 200.0 mg/kg/injection, schedule: Q01DX001 (ip), vehicle: other).
As for `CCN(CC)Cc1cc(O)c(CN(CC)CC)cc1O`, the T/C runs as follows: (dose: 25.0 mg/kg/injection, schedule: Q01DX001 (ip), vehicle: saline with Tween-80) 93 % of control; (dose: 50.0 mg/kg/injection, schedule: Q01DX001 (ip), vehicle: saline with Tween-80) 103 % of control; under setting [18], 96 % of control.
On to `Nc1nc(N)c(-c2ccc(Cl)c(Cl)c2)c(/C=C/c2ccc(S(=O)(=O)F)cc2)n1`, for which the T/C was 87 % of control under setting [18], 91 % of control under setting [19] and 87 % of control under setting [20].
Regarding `CC(C)(C)CCN1C(=O)c2ccccc2C1=O`, the T/C under setting [4] was 94 % of control; the T/C (dose: 100.0 mg/kg/injection, schedule: Q01DX009 (ip), vehicle: saline) is 100 % of control; the T/C under setting [5] was 92 % of control; the T/C (dose: 200.0 mg/kg/injection, schedule: Q01DX009 (ip), vehicle: saline) was 97 % of control; the T/C under setting [6] was 92 % of control; the T/C (dose: 400.0 mg/kg/injection, schedule: Q01DX009 (ip), vehicle: saline) was 97 % of control.
Consider `CCOC(=O)C(Cc1ccc(N(CCCl)CCCl)cc1)NP1(=O)NCCCO1` (stereo unspecified), for which the T/C was 123 % of control (dose: 2.0 mg/kg/injection, schedule: Q01DX015 (ip), vehicle: carboxymethylcellulose (CMC)); 92 % of control (dose: 14.0 mg/kg/injection, schedule: Q01DX015 (ip), vehicle: carboxymethylcellulose (CMC)); 167 % of control (dose: 18.0 mg/kg/injection, schedule: Q01DX015 (ip), vehicle: other); 117 % of control (dose: 28.14 mg/kg/injection, schedule: Q01DX015 (ip), vehicle: carboxymethylcellulose (CMC)); 156 % of control (dose: 30.0 mg/kg/injection, schedule: Q01DX015 (ip), vehicle: other); 94 % of control (dose: 48.0 mg/kg/injection, schedule: Q01DX015 (ip), vehicle: carboxymethylcellulose (CMC)). In addition, the T/C was 109 % of control (dose: 50.0 mg/kg/injection, schedule: Q01DX015 (ip), vehicle: other); 111 % of control (dose: 100.0 mg/kg/injection, schedule: Q01DX001 (ip), vehicle: carboxymethylcellulose (CMC)); 160 % of control under setting [17]; 115 % of control (dose: 400.0 mg/kg/injection, schedule: Q01DX001 (ip), vehicle: carboxymethylcellulose (CMC)).
Consider `CCCCCCCCCCCCCCCCCCNC(=O)NC(C)(C)C`, for which the T/C was 111 % of control under setting [21]; 100 % of control (dose: 200.0 mg/kg/injection, schedule: Q04DX002 (ip), vehicle: Klucel (hydroxypropylcellulose) (HPC)); 111 % of control (dose: 400.0 mg/kg/injection, schedule: Q04DX002 (ip), vehicle: Klucel (hydroxypropylcellulose) (HPC)).
`CC1(CC(=O)O)CCc2ccccc2C1=O` (stereo unspecified): the T/C under setting [7] is 98 % of control; the T/C under setting [8] is 98 % of control; the T/C under setting [9] was 94 % of control; the T/C under setting [10] was 96 % of control; the T/C under setting [11] is 100 % of control; the T/C under setting [12] was 102 % of control.
As to `Nc1ccnc2n[nH]nc12`, the T/C was 111 % of control under setting [18]; 101 % of control under setting [1]; 110 % of control under setting [19]; 100 % of control under setting [2]; 104 % of control under setting [20]; 103 % of control under setting [3].
With `CS(=O)(=O)N1CC(O)CN(S(C)(=O)=O)CC(O)C1` (stereo unspecified), the T/C (dose: 25.0 mg/kg/injection, schedule: Q04DX002 (ip), vehicle: Klucel (hydroxypropylcellulose) (HPC)) was 100 % of control; the T/C (dose: 50.0 mg/kg/injection, schedule: Q04DX002 (ip), vehicle: Klucel (hydroxypropylcellulose) (HPC)) was 100 % of control; the T/C under setting [21] is 110 % of control.
Regarding `Cc1cccc2c(N3CCOCC3)c3c(nc12)CCCCC3`, the T/C is 96 % of control under setting [1], 95 % of control under setting [2] and 101 % of control under setting [3].
On to `CCOC(=O)C1C(=O)CC(=O)C(C(=O)OCC)C1C1CC=CCC1` (stereo unspecified), for which the T/C runs as follows: under setting [13], 91 % of control; under setting [14], 94 % of control; under setting [15], 94 % of control.
As for `CN(C)c1ccc([N+](=O)[O-])c2c1CCC2`, the T/C is 111 % of control under setting [16], 90 % of control under setting [4], 106 % of control under setting [5] and 106 % of control under setting [6].

Source of the values: PubChem BioAssay AID248 (DTP/NCI, 2004).
